In ChEMBL document CHEMBL1649512, “Reduced susceptibility to cefepime among Escherichia coli clinical isolates producing novel variants of CMY-2 beta-lactamase” (2009):
≈ marks a conversion by molar mass, not a printed value.

Key:
Assay type in all cases: functional
Escherichia coli [1] = test: Antibacterial activity against Escherichia coli 1285 harboring beta-lactamase CMY-33 gene by Etest method
Escherichia coli [2] = test: Antibacterial activity against Escherichia coli YD006 harboring beta-lactamase CMY-33 gene by Etest method
Escherichia coli [3] = test: Antibacterial activity against Escherichia coli 34943 harboring beta-lactamase CMY-44 gene by Etest method
Escherichia coli [4] = test: Antibacterial activity against Escherichia coli DH10B harboring plasmid BCSK carrying beta-lactamase CMY-33 gene by Etest method; conditions: K-12 DH10B
Escherichia coli [5] = test: Antibacterial activity against Escherichia coli DH10B harboring plasmid BCSK carrying beta-lactamase CMY-44 gene by Etest method; conditions: K-12 DH10B
Escherichia coli [6] = test: Antibacterial activity against Escherichia coli DH10B harboring plasmid BCSK carrying beta-lactamase CMY-2 gene by Etest method; conditions: K-12 DH10B
Escherichia coli [7] = test: Antibacterial activity against Escherichia coli DH10B harboring plasmid BCSK by Etest method; conditions: K-12 DH10B

Compound	MIC (Escherichia coli [1]) [µg/mL]	MIC (Escherichia coli [2]) [µg/mL]	MIC (Escherichia coli [3]) [µg/mL]	MIC (Escherichia coli [4]) [µg/mL]	MIC (Escherichia coli [5]) [µg/mL]	MIC (Escherichia coli [6]) [µg/mL]	MIC (Escherichia coli [7]) [µg/mL]
CO/N=C(\C(=O)N[C@@H]1C(=O)N2C(C(=O)O)=C(COC(C)=O)CS[C@H]12)c1csc(N)n1 [CEFOTAXIME]	> 256	8 (≈ 17.6 µM)	32 (≈ 70.3 µM)	12 (≈ 26.3 µM)	8 (≈ 17.6 µM)	16 (≈ 35.1 µM)	0.064 (≈ 0.141 µM)
CO/N=C(\C(=O)N[C@@H]1C(=O)N2C(C(=O)O)=C(COC(N)=O)CS[C@H]12)c1ccco1 [CEFUROXIME]	> 256	96 (≈ 226 µM)	> 256	128 (≈ 302 µM)	64 (≈ 151 µM)	> 256	6 (≈ 14.1 µM)
CO/N=C(\C(=O)N[C@@H]1C(=O)N2C(C(=O)[O-])=C(C[N+]3(C)CCCC3)CS[C@H]12)c1csc(N)n1 [CEFEPIME]	96 (≈ 200 µM)	6 (≈ 12.5 µM)	32 (≈ 66.6 µM)	6 (≈ 12.5 µM)	3 (≈ 6.24 µM)	0.25 (≈ 0.52 µM)	0.032 (≈ 0.0666 µM)
C[C@H]1[C@H](NC(=O)/C(=N\OC(C)(C)C(=O)O)c2csc(N)n2)C(=O)N1S(=O)(=O)O [AZTREONAM]	64 (≈ 147 µM)	6 (≈ 13.8 µM)	24 (≈ 55.1 µM)	16 (≈ 36.7 µM)	4 (≈ 9.19 µM)	8 (≈ 18.4 µM)	
CO[C@@]1(NC(=O)Cc2cccs2)C(=O)N2C(C(=O)O)=C(COC(N)=O)CS[C@@H]21 [CEFOXITIN]	> 256	24 (≈ 56.1 µM)	> 256	24 (≈ 56.1 µM)	32 (≈ 74.9 µM)	> 256	6 (≈ 14 µM)
CCN1CCN(C(=O)N[C@@H](C(=O)N[C@@H]2C(=O)N3[C@@H]2SC(C)(C)[C@@H]3C(=O)O)c2ccccc2)C(=O)C1=O [PIPERACILLIN]	> 256	12 (≈ 23.2 µM)	> 256	64 (≈ 124 µM)	32 (≈ 61.8 µM)	128 (≈ 247 µM)	2 (≈ 3.86 µM)
C[C@@H](O)[C@H]1C(=O)N2C(C(=O)O)=C(S[C@@H]3CN[C@H](C(=O)Nc4cccc(C(=O)O)c4)C3)[C@H](C)[C@H]12 [ERTAPENEM]	1 (≈ 2.1 µM)	0.064 (≈ 0.135 µM)	4 (≈ 8.41 µM)	0.032 (≈ 0.0673 µM)	0.064 (≈ 0.135 µM)	0.094 (≈ 0.198 µM)	0.012 (≈ 0.0252 µM)
CC(C)(O/N=C(\C(=O)N[C@@H]1C(=O)N2C(C(=O)[O-])=C(C[n+]3ccccc3)CS[C@H]12)c1csc(N)n1)C(=O)O [CEFTAZIDIME]	> 256	> 256	> 256	> 256	> 256	> 256	0.5 (≈ 0.915 µM)
CC1(C)S[C@@H]2[C@H](NC(=O)[C@H](N)c3ccccc3)C(=O)N2[C@H]1C(=O)O [AMPICILLIN]	> 256	128 (≈ 366 µM)	> 256	> 256	> 256	> 256	3 (≈ 8.59 µM)
